Data: US20080312271A1, “AZABENZIMIDAZOLYL COMPOUNDS” (Pfizer Inc., priority 2006, published 2008)
Where two headings read alike, the source gives them in different places.

Molecular target: T1, mGluR2 receptor (metabotropic glutamate receptor 2) (Homo sapiens, UniProt Q14416)
T1 construct: expressed in transfected cells
Assay: mGluR2 Potentiator Screen, FLIPR, EC10-EC20 glutamate challenge
Type: cell-based
Protocol: Procedure for mGluR2 Potentiator Screen NLB methods EC10-EC20 Challenge Cell Culture and Plating:
Cells used for this screen are HEK cells stably transfected with the mGluR2 receptor (metabotropic glutamate receptor 2) and the Gα15 G protein. Clones were identified by functional activity (FLIPR). Cells are grown in growth media containing: DMEM High Glucose with Glutamine and Na Pyruvate (GIBCO), 10% (v/v) Heat inactivate FBS (GIBCO), G418 500 ug/ml (from 50 mg/ml stock) (GIBCO) and Blasticidin 3 ug/ml (from 5 mg/ml stock made in H2O) (Invitrogen).
2 days before the assay cell are trypsinized with 0.25% trysin/EDTA (GIBCO), spun down at 1000 rpm for 5 minutes, resuspended in growth media and plated on polystyrene 384 well black wall 1 clear bottom poly-D-lysine coated plates at a density of approximately 18,000 cells/well in a volume of 50 μL per well. One day before the assay the growth media is removed from the plates by flicking, and replaced with media containing DMEM High Glucose without Glutamine and Na Pyruvate (GIBCO) and 10% (v/v) dialyzed FBS (GIBCO). The reason for the removal of glutamine the day before the assay is to minimize the amount of glutamate that will be present during the assay, as endogenous glutarnate released from the cells can reduce the fluorescent response and interfere with the FLIPR screen.
FLIPR Methods and Data Analysis:
On the day of the assay, the FLIPR assay is performed using the following methods.
The pH is adjusted to 7.4 with 1 M NaOH. Prepare a 2 mM (approx.) stock solution of Fluo-4,am (Molecular Probes) dye in DMSO-22 μl DMSO per 50 ug vial (440 μL per 1 mg vial). Make a 1 mM (approx.) flou-4, PA working solution per vial by adding 22 μl of 20% pluronic acid (PA), (Molecular Probes) in DMSO to each 50 ug vial (440 μL per 1 mg vial). Prepare a 250 mM Probenecid (Sigma) stock solution by dissolving 0.71 g into 5 ml 1N NaOH and 5 ml assay buffer (for each liter of assay wash buffer)L Make 4 uM (approx.) dye incubation media by adding […] per 11 ml DMEM high glucose without glutamine (220 ml per 1 mg vial). Add 110 μL probenecid stock per 11 ml (2.5 mM final [concentration]). To the dye media add 3 units/ml of glutamic-pyruvic transaminase (GPT, Sigma) and 3 mM Na Pyruvate. The assay has worked with dye concentrations from 2 uM to 8 uM dye as well. To the assay buffer from drug preparation, add 1.83 mls DMSO and 400 μL 15.8% P104 (from New Leads biology) per liter for final concentrations of 0.18% DMSO and 0.006% P104. To the assay buffer for cell washing, add probenecid in the same manner and concentration that was used for the dye media.
Remove growth media from cell plates by flicking. Add 50 μl/well dye solution. Incubate 1 hour at 37° C. and 5% CO2. Remove dye solution and wash 3 times with assay buffer+probenecid (100 μl probenecid stock per 10 ml buffer), leaving 30 μL/well assay buffer. Wait at least 10-15 minutes. Compounds and agonist challenge additions are performed with the FLIPR. The 1st addition is for test compounds, which are added as 15 μL of 4×[concentration] of potentiator. The second 2nd addition is 15 μL of 4×[concentration] of agonist or challenge. This achieves 1× concentration of all compounds only after 2nd addition. The 1st and 2nd additions are performed separately using the FLIPR, which give 2 different data files. Compounds are pretreated at least 30 minutes before agonist addition,
Results are analyzed by dividing the peak fluorescent value of the FLIPR response by the […] to achieve a ratio response. The ratios are then analyzed by curve fitting programs. […] Maximum values for dose response curves (forced fitting) are derived from standards on the plate.
Compound Preparation and Glutamate Challenge:
Compounds are delivered as 10 mM DMSO stocks or as powders, Powders are solubilized in DMSO at 10 mM (as solubility allows). Compounds are sonicated in a heated water bath (35-40° C.) for at least 20 minutes.

[1] = mGluR2 potentiator screen, FLIPR, EC10-EC20 glutamate challenge

T1 sequence (Q14416 19-872, species assumed): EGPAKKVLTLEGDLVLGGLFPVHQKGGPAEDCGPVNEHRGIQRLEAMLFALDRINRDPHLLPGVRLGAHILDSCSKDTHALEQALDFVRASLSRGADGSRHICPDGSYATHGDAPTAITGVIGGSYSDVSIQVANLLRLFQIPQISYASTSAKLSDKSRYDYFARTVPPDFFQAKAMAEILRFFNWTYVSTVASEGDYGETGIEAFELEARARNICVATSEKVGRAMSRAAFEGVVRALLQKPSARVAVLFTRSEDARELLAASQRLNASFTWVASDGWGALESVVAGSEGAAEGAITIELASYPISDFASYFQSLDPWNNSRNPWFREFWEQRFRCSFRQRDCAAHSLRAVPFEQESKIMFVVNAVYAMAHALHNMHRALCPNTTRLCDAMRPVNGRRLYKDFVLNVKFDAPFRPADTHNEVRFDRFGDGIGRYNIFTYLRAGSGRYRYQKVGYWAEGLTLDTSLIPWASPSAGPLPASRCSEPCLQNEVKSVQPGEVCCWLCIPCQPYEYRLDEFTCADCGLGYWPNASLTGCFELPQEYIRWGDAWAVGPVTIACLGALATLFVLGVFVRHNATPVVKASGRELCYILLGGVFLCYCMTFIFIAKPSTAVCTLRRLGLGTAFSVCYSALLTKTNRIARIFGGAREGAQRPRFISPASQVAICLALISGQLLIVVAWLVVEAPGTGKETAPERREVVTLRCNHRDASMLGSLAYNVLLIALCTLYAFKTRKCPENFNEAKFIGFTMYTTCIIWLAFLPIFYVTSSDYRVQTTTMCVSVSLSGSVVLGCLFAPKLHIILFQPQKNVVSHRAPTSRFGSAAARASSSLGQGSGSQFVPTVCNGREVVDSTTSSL

EC50 [nM] | EC50 [1] [nM] | Structure (SMILES) | also measured
1310 |  | COc1cc(C(F)(F)F)ccc1[C@H]1CCN(Cc2nc3cnccc3n2C)C[C@H]1C (single isomer, unassigned) [compound 141] | 
> 314 |  | COc1cc(C(F)(F)F)ccc1[C@H]1CCN(Cc2nc3cnccc3n2C)C[C@H]1C (single isomer, unassigned) [compound 142] | 
> 808 |  | COc1ccc(Cl)cc1C1CCN(Cc2nc3cccnc3n2C)CC1 [compound 44] | 
 | 33.9 | COc1cc(OC(F)(F)F)ccc1C1CCN(Cc2nc3cnccc3n2C)CC1 [compound 280] | 
 | 125 | CC(C)Oc1ccc(C2CCN(Cc3nc4cnccc4n3C)CC2)c(F)c1 [compound 261] | 
1450 |  | COc1ccccc1C1CCN(Cc2nc3cnccc3n2C)CC1 [compound 46] | 
 | 289 | COc1cc(C2CCN(Cc3nc4ncccc4n3C)CC2)ccc1C(F)(F)F [compound 279] | 
501 |  | CCOc1ccc(Cl)cc1C1CCN(Cc2nc3cccnc3n2C)CC1 [compound 42] | 
 | 99.7 | COc1cc(OC(F)(F)F)ccc1C1CCN(Cc2nc3ncccc3n2C)CC1 [compound 281] | 
710 |  | Cc1ccc(C2CCN(Cc3nc4ncccc4n3C)CC2)cc1 [compound 104] | 
 | 50.8 | Cn1c(CN2CCC(c3ccc(C(F)(F)F)cc3F)CC2)nc2cnccc21 [compound 236] | 
302 |  | COc1ccccc1C1CCN(Cc2nc3ncccc3n2C)CC1C (centres unmarked) [compound 60] | 
 | > 221 | C[C@@H]1CN(Cc2nc3cnccc3n2C)CC[C@@H]1c1ccc(F)c(F)c1F (relative stereo) [compound 250] | 
196 |  | Cn1c(CN2CCC(c3ccc(C(F)(F)F)cc3)CC2)nc2ccncc21 [compound 93] | 
72.6 |  | C#CCOc1ccc(Cl)cc1C1CCN(Cc2nc3ncccc3n2C)CC1 [compound 45] | 
 | 1460 | COc1cc(F)ccc1[C@H]1CCN(Cc2nc3cnccc3n2C)C[C@H]1C (single isomer, unassigned) [compound 259] | 
 | 88.5 | Cc1cc(C2CCN(Cc3nc4cnccc4n3C)CC2)ccc1C(F)(F)F [compound 276] | 
9770 |  | COc1ccc(C2CCN(Cc3nc4ncccc4n3C)CC2)cc1 [compound 81] | 
410 |  | CCCOc1ccc(Cl)cc1C1CCN(Cc2nc3cccnc3n2C)CC1 [compound 40] | 
834 |  | COc1cc(C(F)(F)F)ccc1C1CCN(Cc2nc3cnccc3n2C)CC1 [compound 63] | 
> 1190 |  | CC(C)Oc1ccc([C@H]2CCN(Cc3nc4cnccc4n3C)C[C@H]2C)c(F)c1 (single isomer, unassigned) [compound 220] | 

Continued, molecule first:

Structure (SMILES) | EC50 [nM] | EC50 [1] [nM] | also measured
C[C@@H]1CN(Cc2nc3ncccc3n2C)CC[C@@H]1c1ccc(C(F)(F)F)cc1 (single isomer, unassigned) [compound 118] | 33.4 |  | 
CC(C)Oc1ccc([C@H]2CCN(Cc3nc4ncccc4n3C)C[C@H]2C)c(F)c1 (single isomer, unassigned) [compound 218] | > 909 |  | 
CC(C)Oc1ccc([C@H]2CCN(Cc3nc4cnccc4n3C)C[C@H]2C)cc1Cl (relative stereo) [compound 193] | 590 |  | 
C[C@@H]1CN(Cc2nc3ncccc3n2C)CC[C@@H]1c1ccc(F)cc1C(F)(F)F (single isomer, unassigned) [compound 252] |  | 288 | 
Cn1c(CN2CCC(c3ccc(OC(F)F)cc3Cl)CC2)nc2ncccc21 [compound 266] |  | 54.9 | 
C[C@@H]1CN(Cc2nc3cnccc3n2C)CC[C@@H]1c1ccc(OC(F)(F)F)cc1F (single isomer, unassigned) [compound 159] | < 31.3 |  | 
C[C@@H]1CN(Cc2nc3ncccc3n2C)CC[C@@H]1c1ccc(F)c(F)c1F (relative stereo) [compound 249] |  | 113 | 
C[C@@H]1CN(Cc2nc3cnccc3n2C)CC[C@@H]1c1ccc(OC(F)F)cc1Cl (single isomer, unassigned) [compound 246] |  | 99.9 | 
Cn1c(CN2CCC(c3ccc(C(F)(F)F)cc3)CC2)nc2ncccc21 [compound 52] | 47.9 |  | 
CC(C)Oc1ccc([C@H]2CCN(Cc3nc4cnccc4n3C)C[C@H]2C)cc1F (relative stereo) [compound 181] | 1090 |  | 
C[C@@H]1CN(Cc2nc3ncccc3n2C)CC[C@@H]1c1ccc2c(c1)CCO2 (relative stereo) [compound 200] | 469 |  | 
C[C@@H]1CN(Cc2nc3cnccc3n2C)CC[C@@H]1c1ccc2c(c1)CCCC2 (relative stereo) [compound 190] | 573 |  | 
CC1CN(Cc2nc3ncccc3n2C)CCC1c1ccccc1F (centres unmarked) [compound 72] | 301 |  | 
C[C@@H]1CN(Cc2nc3cnccc3n2C)CC[C@@H]1c1ccc(OC(F)F)cc1Cl (relative stereo) [compound 202] | 125 |  | 
Cn1c(CN2CCC(c3ccc(C(F)(F)F)cc3)C(C)(C)C2)nc2ncccc21 (centres unmarked) [compound 76] | 745 |  | 
C[C@H]1CN(Cc2nc3ncccc3n2C)CC[C@H]1c1ccc(Cl)cc1F [compound 123] | > 1810 |  | 

Structure (SMILES) | EC50 [nM] | EC50 [1] [nM] | also measured
C[C@@H]1CN(Cc2nc3ncccc3n2C)CC[C@@H]1c1ccc(F)cc1C(F)(F)F (single isomer, unassigned) [compound 251] |  | 21 | 
Cc1cc(C(F)(F)F)ccc1C1CCN(Cc2nc3ncccc3n2C)CC1 [compound 243] |  | 51.1 | 
C[C@@H]1CN(Cc2nc3ncccc3n2C)CC[C@@H]1c1ccc(OC(F)F)cc1F (relative stereo) [compound 257] |  | 67.7 | 
C[C@@H]1CN(Cc2nc3ncccc3n2C)CC[C@@H]1c1ccc(F)c(F)c1 (relative stereo) [compound 121] | 753 |  | 
C[C@@H]1CN(Cc2nc3nccc4c3n2CCC4)CC[C@@H]1c1ccc(Cl)cc1F (relative stereo) [Example 129, 2-{[Cis-4-(4-chloro-2-fluorophenyl)-3-methylpiperidin-1-yl]methyl}-5,6-dihydro-4H-imidazo[4,5,1-ij]-1,7-naphthyridine] | 12.5 |  | EC50 (HEK cells stably transfected with mGluR2 and Gα15, FLIPR (Fluo-4), potentiation of an EC10 to EC20 concentration of glutamate, Table 9): 12.5 nM
C[C@@H]1CN(Cc2nc3ncccc3n2C)CC[C@@H]1c1ccc(OC(F)(F)F)cc1Cl (relative stereo) [compound 187] | 63 |  | 
Cn1c(CN2CCC(c3ccc(Cl)c(F)c3)CC2)nc2ncccc21 [compound 106] | 190 |  | 
C[C@@H]1CN(Cc2nc3cnccc3n2C)CC[C@@H]1c1ccc(C(F)(F)F)cc1 (relative stereo) [compound 71] | 75 |  | 
C[C@@H]1CN(Cc2nc3ncccc3n2C)CC[C@@H]1c1ccc(C(F)(F)F)cc1F (single isomer, unassigned) [compound 139] | 993 |  | 
Cc1cc(C2CCN(Cc3nc4ncccc4n3C)CC2)ccc1C(F)(F)F [compound 277] |  | 60.5 | 
C[C@@H]1CN(Cc2nc3cnccc3n2C)CC[C@@H]1c1ccc(C(F)(F)F)cc1Cl (single isomer, unassigned) [compound 171] | 1520 |  | 
CC(C)Oc1ccc([C@H]2CCN(Cc3nc4ncccc4n3C)C[C@H]2C)c(Cl)c1 (relative stereo) [compound 169] | 174 |  | 
C[C@@H]1CN(Cc2nc3ncccc3n2C)CC[C@@H]1c1ccc(C(F)(F)F)cc1Cl (single isomer, unassigned) [compound 163] | 396 |  | 
C[C@@H]1CN(Cc2nc3ncccc3n2C)CC[C@@H]1c1ccc(OC(F)(F)F)c(Cl)c1 (relative stereo) [compound 213] | 253 |  | 
Cc1cc(C(F)(F)F)ccc1[C@H]1CCN(Cc2nc3ncccc3n2C)C[C@H]1C (relative stereo) [compound 239] |  | 88 | 
